In the NIST ThermoML archive (doi:10.1021/acs.jced.8b00058):
Values joined by “and” are separate entries in the source; they are usually repeats but may differ in a detail not shown here. Equal entries are not always repeated. Numbers after ± are expanded uncertainties.

How the values were obtained:
[1] = mn = molality of the nth substance listed, in mol/kg; settings: 100 kPa, Liquid; for speed of sound: Frequency=3 MHz, Single path-length method; for mass density: Vibrating tube method
[2] = 100 kPa, Liquid, Frequency=3 MHz, Single path-length method

OCCO [1,2-ethanediol] + O
[1]
Settings	mass density, m1 = 0.09889 [kg/m3]	mass density, m1 = 0.1989 [kg/m3]	mass density, m1 = 0.2997 [kg/m3]	mass density, m1 = 0.3948 [kg/m3]	mass density, m1 = 0.5016 [kg/m3]	speed of sound, m1 = 0.09889 [m/s]	speed of sound, m1 = 0.1989 [m/s]	speed of sound, m1 = 0.2997 [m/s]	speed of sound, m1 = 0.3948 [m/s]	speed of sound, m1 = 0.5016 [m/s]
293.15 K	999.059 ± 1	999.884 ± 1	1000.68 ± 1	1001.4 ± 1	1002.2 ± 1	1485.5 ± 2	1488.3 ± 2	1491.2 ± 2	1493.9 ± 2	1496.8 ± 2
298.15 K	997.877 ± 1	998.688 ± 1	999.473 ± 1	1000.18 ± 1	1000.96 ± 1	1498.9 ± 2	1501.7 ± 2	1504.3 ± 2	1506.6 ± 2	1509.1 ± 2
303.15 K	996.471 ± 1	997.262 ± 1	998.033 ± 1	998.733 ± 1	999.48 ± 1	1511.1 ± 2	1513.8 ± 2	1516.2 ± 2	1518.7 ± 2	1521.2 ± 2
308.15 K	994.84 ± 1	995.613 ± 1	996.362 ± 1	997.038 ± 1	997.764 ± 1	1521.8 ± 2	1524 ± 2	1526.2 ± 2	1528.3 ± 2	1530.3 ± 2

Nc1ccccc1 [aniline] + O
[1]
Settings	mass density, 293.15 K	mass density, 298.15 K	mass density, 303.15 K	mass density, 308.15 K	speed of sound, 293.15 K [m/s]	speed of sound, 298.15 K [m/s]	speed of sound, 303.15 K [m/s]	speed of sound, 308.15 K
m1 = 0.1	998.568 ± 1 kg/m3 and 998.57 ± 1 kg/m3	997.42 ± 1 kg/m3 and 997.421 ± 1 kg/m3	995.98 ± 1 kg/m3 and 995.983 ± 1 kg/m3	994.35 ± 1 kg/m3 and 994.351 ± 1 kg/m3	1483.3 ± 2	1497.2 ± 2	1509.5 ± 2	1520.5 ± 2 m/s
m1 = 0.2	998.97 ± 1 kg/m3 and 998.972 ± 1 kg/m3	997.81 ± 1 kg/m3 and 997.813 ± 1 kg/m3	996.33 ± 1 kg/m3 and 996.326 ± 1 kg/m3	994.68 ± 1 kg/m3 and 994.684 ± 1 kg/m3	1485 ± 2	1498.7 ± 2	1510.8 ± 2	1521.9 ± 2 m/s and 1520.5 ± 2 m/s
m1 = 0.3	999.36 ± 1 kg/m3 and 999.363 ± 1 kg/m3	998.21 ± 1 kg/m3 and 998.208 ± 1 kg/m3	996.705 ± 1 kg/m3 and 996.71 ± 1 kg/m3	995.035 ± 1 kg/m3 and 995.04 ± 1 kg/m3	1486.8 ± 2	1500 ± 2	1512.1 ± 2	1521.9 ± 2 m/s and 1523.3 ± 2 m/s
m1 = 0.4	999.783 ± 1 kg/m3 and 999.78 ± 1 kg/m3	998.592 ± 1 kg/m3 and 998.59 ± 1 kg/m3	997.079 ± 1 kg/m3 and 997.08 ± 1 kg/m3	995.385 ± 1 kg/m3 and 995.39 ± 1 kg/m3	1488.6 ± 2	1502 ± 2	1513.5 ± 2	1523.6 ± 2 m/s and 1524.7 ± 2 m/s

OCCOCCO [diethylene glycol] + O
[1]
Settings	mass density, m1 = 0.09849 [kg/m3]	mass density, m1 = 0.1974 [kg/m3]	mass density, m1 = 0.295 [kg/m3]	mass density, m1 = 0.4101 [kg/m3]	mass density, m1 = 0.5006 [kg/m3]	speed of sound, m1 = 0.09849 [m/s]	speed of sound, m1 = 0.1974 [m/s]	speed of sound, m1 = 0.295 [m/s]	speed of sound, m1 = 0.4101 [m/s]	speed of sound, m1 = 0.5006 [m/s]
293.15 K	999.647 ± 1	1001.03 ± 1	1002.36 ± 1	1003.86 ± 1	1004.99 ± 1	1487.7 ± 2	1493.1 ± 2	1498.1 ± 2	1504.1 ± 2	1508.3 ± 2
298.15 K	998.458 ± 1	999.78 ± 1	1001.03 ± 1	1002.49 ± 1	1003.59 ± 1	1501.2 ± 2	1506 ± 2	1510.8 ± 2	1516.2 ± 2	1520.3 ± 2
303.15 K	997.071 ± 1	998.395 ± 1	999.643 ± 1	1001.05 ± 1	1002.15 ± 1	1513.1 ± 2	1517.6 ± 2	1522 ± 2	1526.9 ± 2	1530.6 ± 2
308.15 K	995.44 ± 1	996.778 ± 1	998.046 ± 1	999.471 ± 1	1000.53 ± 1	1523.5 ± 2	1527.5 ± 2	1531.5 ± 2	1536.1 ± 2	1539.6 ± 2

OCCOCCOCCO [triethylene glycol] + O
[1]
Settings	mass density, m1 = 0.0965 [kg/m3]	mass density, m1 = 0.2002 [kg/m3]	mass density, m1 = 0.292 [kg/m3]	mass density, m1 = 0.3986 [kg/m3]	mass density, m1 = 0.4988 [kg/m3]	speed of sound, m1 = 0.0965 [m/s]	speed of sound, m1 = 0.2002 [m/s]	speed of sound, m1 = 0.292 [m/s]	speed of sound, m1 = 0.3986 [m/s]	speed of sound, m1 = 0.4988 [m/s]
293.15 K	1000.31 ± 1	1002.46 ± 1	1004.29 ± 1	1006.36 ± 1	1008.22 ± 1	1489.9 ± 2	1498 ± 2	1504.8 ± 2	1513.1 ± 2	1520.5 ± 2
298.15 K	999.126 ± 1	1001.27 ± 1	1003.11 ± 1	1005.14 ± 1	1006.99 ± 1	1503.5 ± 2	1511 ± 2	1517.6 ± 2	1525.4 ± 2	1532.2 ± 2
303.15 K	997.728 ± 1	999.858 ± 1	1001.67 ± 1	1003.69 ± 1	1005.54 ± 1	1514.8 ± 2	1521.8 ± 2	1528 ± 2	1535.1 ± 2	1541.7 ± 2
308.15 K	996.095 ± 1	998.216 ± 1	1000.01 ± 1	1002.02 ± 1	1003.85 ± 1	1525.1 ± 2	1531.3 ± 2	1536.9 ± 2	1543.3 ± 2	1549.4 ± 2

O [water]
[2]
Settings	speed of sound [m/s]
293.15 K	1481.1 ± 2
298.15 K	1495.8 ± 2
308.15 K	1519.1 ± 2
